Values of other authors as cited in patent US20240148709A1, “METHODS OF TREATING EYE PAIN AND EYE DISORDERS” (Aisa Pharma, Inc., priority 2022, published 2024).

Conditions: oral dosing; cited from earlier work

CCOC(=O)C1=C(COCCN)NC(C)=C(C(=O)OC)C1c1ccccc1Cl (stereo not shown) [amlodipine]
time to achieve maximal plasma concentration (Tmax): 10 h
